Assay results as given in patent US9765075B2, “Substituted bridged urea analogs as sirtuin modulators” (GLAXOSMITHKLINE LLC, priority 2013, dated 2017).

Target: T1, SIRT1 (Homo sapiens, UniProt Q96EB6)
T1 sequence (Q96EB6 1-747): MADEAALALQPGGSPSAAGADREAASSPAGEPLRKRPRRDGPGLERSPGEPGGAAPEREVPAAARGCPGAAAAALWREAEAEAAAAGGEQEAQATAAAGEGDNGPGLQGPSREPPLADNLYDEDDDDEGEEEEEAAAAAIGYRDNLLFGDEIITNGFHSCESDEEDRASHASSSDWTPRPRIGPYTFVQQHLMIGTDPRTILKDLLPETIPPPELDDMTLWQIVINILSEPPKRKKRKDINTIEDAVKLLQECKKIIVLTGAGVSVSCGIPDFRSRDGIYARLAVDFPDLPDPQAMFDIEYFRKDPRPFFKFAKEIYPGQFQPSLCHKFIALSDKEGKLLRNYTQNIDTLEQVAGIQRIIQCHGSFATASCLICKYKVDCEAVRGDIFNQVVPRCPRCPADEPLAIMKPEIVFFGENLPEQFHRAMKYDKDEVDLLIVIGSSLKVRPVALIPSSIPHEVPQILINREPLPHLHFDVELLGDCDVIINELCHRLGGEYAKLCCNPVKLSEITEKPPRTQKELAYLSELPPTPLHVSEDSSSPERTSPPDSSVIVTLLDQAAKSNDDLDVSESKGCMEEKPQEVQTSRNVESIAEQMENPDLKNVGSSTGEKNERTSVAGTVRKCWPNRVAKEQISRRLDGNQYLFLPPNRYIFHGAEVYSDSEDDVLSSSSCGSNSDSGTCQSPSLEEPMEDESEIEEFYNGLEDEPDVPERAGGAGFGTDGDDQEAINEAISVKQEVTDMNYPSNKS
Experiment: Trp mass spectrometry assay (SIRT1 activation)
Type: biochemical
Settings: Trp peptide substrate; for Tryp AVG EC1.5 (μM): concentration of test compound that results in 150% activation of SIRT1; for Emax: percent maximum fold activation of SIRT1, read-out: Tryp % Fold Act
How it was run: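 Activation is expressed as EC1.5, the concentration raising activity 50% above DMSO control, and as maximum percent of control. Mass-spec readout was OAADPR or deacetylated Trp peptide after a formic-acid-quenched 25-min, 25 °C reaction: 10 nM bacterially expressed His-SIRT1, 0.5 μM acetyl-p53-derived peptide, 120 μM NAD+, pH 7.5 HEPES with […].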

Row | Structure (SMILES) | Tryp AVG EC1.5 (μM) | Emax
1 | O=C(Nc1cccnc1)N1c2nc(N3CCCC(C(F)(F)F)C3)ccc2N2CCC[C@H]1C2 (stereo partly drawn) [Example 288] | A (EC1.5<1 μM) | ≥ 150%
2 | Cc1cncc(NC(=O)N2c3nc(N4CCCC(C(F)(F)F)C4)ccc3N3CCC[C@H]2C3)c1 (stereo partly drawn) [Example 289] | A (EC1.5<1 μM) | ≥ 150%
3 | O=C(Nc1cncc(F)c1)N1c2nc(N3CCCC(C(F)(F)F)C3)ccc2N2CCC[C@H]1C2 (stereo partly drawn) [Example 290] | A (EC1.5<1 μM) | ≥ 150%
4 | O=C(Nc1ccncc1F)N1c2nc(N3CCCC(C(F)(F)F)C3)ccc2N2CCC[C@H]1C2 (stereo partly drawn) [Example 291] | B (EC1.5 1-25 μM) | ≥ 150%
5 | O=C(Nc1ncccn1)N1c2nc(N3CCCC(C(F)(F)F)C3)ccc2N2CCC[C@H]1C2 (stereo partly drawn) [Example 292] | A (EC1.5<1 μM) | ≥ 150%
6 | O=C(Nc1cnccn1)N1c2nc(N3CCCC(C(F)(F)F)C3)ccc2N2CCC[C@H]1C2 (stereo partly drawn) [Example 293] | A (EC1.5<1 μM) | ≥ 150%
7 | O=C(Nc1ccncn1)N1c2nc(N3CCCC(C(F)(F)F)C3)ccc2N2CCC[C@H]1C2 (stereo partly drawn) [Example 294] | B (EC1.5 1-25 μM) | ≥ 150%
8 | O=C(Nc1nccs1)N1c2nc(N3CCCC(C(F)(F)F)C3)ccc2N2CCC[C@H]1C2 (stereo partly drawn) [Example 295] | A (EC1.5<1 μM) | ≥ 150%
9 | Cc1cnc(NC(=O)N2c3nc(N4CCCC(C(F)(F)F)C4)ccc3N3CCC[C@H]2C3)s1 (stereo partly drawn) [Example 296] | B (EC1.5 1-25 μM) | ≥ 150%
10 | Cc1csc(NC(=O)N2c3nc(N4CCCC(C(F)(F)F)C4)ccc3N3CCC[C@H]2C3)n1 (stereo partly drawn) [Example 297] | B (EC1.5 1-25 μM) | ≥ 150%
11 | Cc1nc(NC(=O)N2c3nc(N4CCCC(C(F)(F)F)C4)ccc3N3CCC[C@H]2C3)sc1C (stereo partly drawn) [Example 298] | B (EC1.5 1-25 μM) | ≥ 150%
12 | O=C(Nc1cccc(-c2cnco2)c1)N1c2nc(N3CCCC(C(F)(F)F)C3)ccc2N2CCC[C@@H]1C2 (stereo partly drawn) [Example 299] | A (EC1.5<1 μM) | ≥ 150%
13 | O=C(Nc1ccccn1)N1c2nc(N3CCCC(C(F)(F)F)C3)ccc2N2CCC[C@@H]1C2 (stereo partly drawn) [Example 300] | C (EC1.5>25 μM) | < 150%
14 | Cc1cc(C)nc(NC(=O)N2c3nc(N4CCCC(C(F)(F)F)C4)ccc3N3CCC[C@@H]2C3)c1 (stereo partly drawn) [Example 301] | C (EC1.5>25 μM) | < 150%
15 | O=C(Nc1cccnc1)N1c2nc(N3CCCC(C(F)(F)F)C3)ccc2N2CCC[C@@H]1C2 (stereo partly drawn) [Example 302] | B (EC1.5 1-25 μM) | ≥ 150%
16 | Cc1cncc(NC(=O)N2c3nc(N4CCCC(C(F)(F)F)C4)ccc3N3CCC[C@@H]2C3)c1 (stereo partly drawn) [Example 303] | B (EC1.5 1-25 μM) | ≥ 150%
17 | O=C(Nc1cncc(F)c1)N1c2nc(N3CCCC(C(F)(F)F)C3)ccc2N2CCC[C@@H]1C2 (stereo partly drawn) [Example 304] | B (EC1.5 1-25 μM) | ≥ 150%
18 | O=C(Nc1ccncc1)N1c2nc(N3CCCC(C(F)(F)F)C3)ccc2N2CCC[C@@H]1C2 (stereo partly drawn) [Example 305] | B (EC1.5 1-25 μM) | ≥ 150%
19 | O=C(Nc1cnccn1)N1c2nc(N3CCCC(C(F)(F)F)C3)ccc2N2CCC[C@@H]1C2 (stereo partly drawn) [Example 307] | B (EC1.5 1-25 μM) | ≥ 150%
20 | O=C(Nc1ccncn1)N1c2nc(N3CCCC(C(F)(F)F)C3)ccc2N2CCC[C@@H]1C2 (stereo partly drawn) [Example 308] | C (EC1.5>25 μM) | ≥ 150%
21 | COc1cncc(NC(=O)N2c3nc(N4CCCC(C(F)(F)F)C4)ccc3N3CCC[C@@H]2C3)c1 (stereo partly drawn) [Example 309] | B (EC1.5 1-25 μM) | ≥ 150%
22 | O=C(Nc1nccs1)N1c2nc(N3CCCC(C(F)(F)F)C3)ccc2N2CCC[C@@H]1C2 (stereo partly drawn) [Example 310] | B (EC1.5 1-25 μM) | ≥ 150%
23 | Cc1cnc(NC(=O)N2c3nc(N4CCCC(C(F)(F)F)C4)ccc3N3CCC[C@@H]2C3)s1 (stereo partly drawn) [Example 311] | C (EC1.5>25 μM) | < 150%
24 | Cc1csc(NC(=O)N2c3nc(N4CCCC(C(F)(F)F)C4)ccc3N3CCC[C@@H]2C3)n1 (stereo partly drawn) [Example 312] | B (EC1.5 1-25 μM) | ≥ 150%

Row | Structure (SMILES) | Tryp AVG EC1.5 (μM) | Emax
25 | Cc1nc(NC(=O)N2c3nc(N4CCCC(C(F)(F)F)C4)ccc3N3CCC[C@@H]2C3)sc1C (stereo partly drawn) [Example 313] | C (EC1.5>25 μM) | < 150%
26 | O=C(Nc1cccc(C2(C(F)(F)F)N=N2)c1)N1c2nc(-c3cccc(C(F)(F)F)c3)ccc2N2CC[C@H]1C2 [Example 315] | B (EC1.5 1-25 μM) | ≥ 150%
27 | O=C(Nc1ccccn1)N1c2nc(-c3cncc(C(F)(F)F)c3)ccc2N2CC[C@H]1C2 [Example 316] | A (EC1.5<1 μM) | ≥ 150%
28 | COc1cc(NC(=O)N2c3nc(-c4cncc(C(F)(F)F)c4)ccc3N3CC[C@H]2C3)ncn1 [Example 317] | B (EC1.5 1-25 μM) | ≥ 150%
29 | O=C(Nc1ccccn1)N1c2nc(-c3cccc(N4CCC(C(F)(F)F)C4)c3)ccc2N2CC[C@H]1C2 (stereo partly drawn) [Example 318] | B (EC1.5 1-25 μM) | ≥ 150%
30 | O=C(Nc1cnccn1)N1c2nc(-c3cccc(N4CCC(C(F)(F)F)C4)c3)ccc2N2CC[C@H]1C2 (stereo partly drawn) [Example 319] | B (EC1.5 1-25 μM) | ≥ 150%
31 | COc1cc(NC(=O)N2c3nc(-c4cccc(N5CCC(C(F)(F)F)C5)c4)ccc3N3CC[C@H]2C3)ncn1 (stereo partly drawn) [Example 320] | B (EC1.5 1-25 μM) | ≥ 150%
32 | O=C(Nc1ccc(F)cn1)N1c2nc(-c3cccc(N4CCC(C(F)(F)F)C4)c3)ccc2N2CC[C@H]1C2 (stereo partly drawn) [Example 321] | B (EC1.5 1-25 μM) | ≥ 150%
33 | O=C(Nc1cncc(F)c1)N1c2nc(-c3cccc(N4CCC(C(F)(F)F)C4)c3)ccc2N2CC[C@H]1C2 (stereo partly drawn) [Example 323] | B (EC1.5 1-25 μM) | ≥ 150%
34 | O=C(Nc1ccccn1)N1c2nc(-c3cc(Cl)cc(Cl)c3)ccc2N2CC[C@H]1C2 [Example 324] | A (EC1.5<1 μM) | ≥ 150%
35 | Cc1cncc(-c2ccc3c(n2)N(C(=O)Nc2ccccn2)[C@H]2CCN3C2)c1 [Example 325] | A (EC1.5<1 μM) | ≥ 150%
36 | CS(=O)(=O)c1ccc(-c2ccc3c(n2)N(C(=O)Nc2ccccn2)[C@H]2CCN3C2)cc1 [Example 326] | B (EC1.5 1-25 μM) | ≥ 150%
37 | Cc1noc(C)c1-c1ccc2c(n1)N(C(=O)Nc1ccccn1)[C@H]1CCN2C1 [Example 327] | C (EC1.5>25 μM) | ≥ 150%
38 | CS(=O)(=O)c1cncc(-c2ccc3c(n2)N(C(=O)Nc2ccccn2)[C@H]2CCN3C2)c1 [Example 328] | B (EC1.5 1-25 μM) | ≥ 150%
39 | O=C(Nc1ccccn1)N1c2nc(-c3ccc(F)c(Cl)c3)ccc2N2CC[C@H]1C2 [Example 329] | A (EC1.5<1 μM) | ≥ 150%
40 | CC(C)c1cccc(-c2ccc3c(n2)N(C(=O)Nc2ccccn2)[C@H]2CCN3C2)c1 [Example 330] | A (EC1.5<1 μM) | ≥ 150%
41 | Cn1ccc(-c2ccc3c(n2)N(C(=O)Nc2ccccn2)[C@H]2CCN3C2)n1 [Example 331] | B (EC1.5 1-25 μM) | ≥ 150%
42 | O=C(Nc1ccccn1)N1c2nc(-c3ccc(Cl)c(Cl)c3)ccc2N2CC[C@H]1C2 [Example 332] | A (EC1.5<1 μM) | ≥ 150%
43 | O=C(Nc1ccccn1)N1c2nc(-c3cc(F)cc(C(F)(F)F)c3)ccc2N2CC[C@H]1C2 [Example 333] | A (EC1.5<1 μM) | ≥ 150%
44 | O=C(Nc1ccccn1)N1c2nc(-c3cccc(C(F)(F)F)c3F)ccc2N2CC[C@H]1C2 [Example 334] | B (EC1.5 1-25 μM) | ≥ 150%
45 | O=C(Nc1cccc(C2(C(F)(F)F)N=N2)c1)N1c2nc(-c3cccc(C(F)(F)F)c3)ccc2N2CCC[C@H]1C2 [Example 335] | A (EC1.5<1 μM) | ≥ 150%
46 | O=C(Nc1ccccn1)N1c2nc(-c3cccc(C(F)(F)F)n3)ccc2N2CC[C@H]1C2 [Example 336] | B (EC1.5 1-25 μM) | ≥ 150%
47 | O=C(Nc1ccncn1)N1c2nc(-c3cccc(C(F)(F)F)n3)ccc2N2CC[C@H]1C2 [Example 337] | B (EC1.5 1-25 μM) | ≥ 150%
48 | O=C(Nc1cnccn1)N1c2nc(-c3cccc(C(F)(F)F)n3)ccc2N2CC[C@H]1C2 [Example 338] | B (EC1.5 1-25 μM) | ≥ 150%
